Results on four molecules are retold here after paper PMC9502754, “Novel Effective Fluorinated Benzothiophene-Indole Hybrid Antibacterials against S. aureus and MRSA Strains” (Pharmaceuticals, 2022).

The target in this assay is T1, MRSA pyruvate kinase (PK) (Staphylococcus aureus, UniProt Q2FG40).
T1 construct: gene pyk; His-tagged MRSA PK from S. aureus USA300 LAC *, pET-28a, expressed in E. coli
T1 sequence (Q2FG40 1-585): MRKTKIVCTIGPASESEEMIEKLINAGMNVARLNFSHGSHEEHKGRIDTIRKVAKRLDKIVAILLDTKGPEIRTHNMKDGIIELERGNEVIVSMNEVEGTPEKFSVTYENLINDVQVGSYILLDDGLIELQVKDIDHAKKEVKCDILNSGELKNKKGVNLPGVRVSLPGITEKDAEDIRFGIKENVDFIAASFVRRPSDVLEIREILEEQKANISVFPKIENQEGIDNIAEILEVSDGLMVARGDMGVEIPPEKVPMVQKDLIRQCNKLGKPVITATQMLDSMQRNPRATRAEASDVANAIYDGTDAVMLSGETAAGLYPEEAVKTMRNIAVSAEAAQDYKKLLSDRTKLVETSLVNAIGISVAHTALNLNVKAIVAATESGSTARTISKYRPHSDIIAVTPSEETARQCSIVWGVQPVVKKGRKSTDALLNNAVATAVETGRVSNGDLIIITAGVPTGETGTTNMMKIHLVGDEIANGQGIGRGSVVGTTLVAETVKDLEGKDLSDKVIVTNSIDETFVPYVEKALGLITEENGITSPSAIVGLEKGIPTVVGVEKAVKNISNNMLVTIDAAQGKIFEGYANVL
The assay is described as follows: Kinase-Glo luminescence assay of ATP formed by purified PK from PEP and ADP. The class given is biochemical. (In general: Kinase-Glo reads ATP consumption through a luciferase reaction.)
For orientation: IC50 means the point on the concentration scale where inhibition reaches its midpoint. As for `Oc1ccc2c(-c3c4cc(F)sc4cc4[nH]c5cc(O)ccc5c34)c[nH]c2c1` [3c, 2-Fluoro-4-(6-hydroxy-1H-indol-3-yl)-9H-thieno[2,3-b]carbazol-7-ol], half-maximal inhibition (IC50) was put at 1600 nM.
The result for `Fc1cc2c(-c3c[nH]c4ccc(Cl)cc34)c3c(cc2s1)[nH]c1ccc(Cl)cc13` [3f, 6-Chloro-4-(5-chloro-1H-indol-3-yl)-2-fluoro-9H-thieno[2,3-b]carbazole] reads 2100 nM; that for `Fc1cc2cc3[nH]c4cc(Cl)ccc4c3c(-c3c[nH]c4cc(Cl)ccc34)c2s1` [4f, 7-Chloro-10-(6-chloro-1H-indol-3-yl)-2-fluoro-5H-thieno[3,2-b]carbazole], 2300 nM; that for `Fc1cc2c(-c3c[nH]c4ccc(Br)cc34)c3[nH]c4ccc(Br)cc4c3cc2s1` [6d, 8-Bromo-4-(5-bromo-1H-indol-3-yl)-2-fluoro-5H-thieno[3,2-b]carbazole], 3500 nM.
